Assay in all cases: biochemical
Type in all cases: biochemical

The target of test [1] is T1, 382 unique human kinases (Homo sapiens, UniProt O00444).
T1 construct: purchased Reaction Biology (HotSpot contract assay)
T1 sequence (O00444 1-970): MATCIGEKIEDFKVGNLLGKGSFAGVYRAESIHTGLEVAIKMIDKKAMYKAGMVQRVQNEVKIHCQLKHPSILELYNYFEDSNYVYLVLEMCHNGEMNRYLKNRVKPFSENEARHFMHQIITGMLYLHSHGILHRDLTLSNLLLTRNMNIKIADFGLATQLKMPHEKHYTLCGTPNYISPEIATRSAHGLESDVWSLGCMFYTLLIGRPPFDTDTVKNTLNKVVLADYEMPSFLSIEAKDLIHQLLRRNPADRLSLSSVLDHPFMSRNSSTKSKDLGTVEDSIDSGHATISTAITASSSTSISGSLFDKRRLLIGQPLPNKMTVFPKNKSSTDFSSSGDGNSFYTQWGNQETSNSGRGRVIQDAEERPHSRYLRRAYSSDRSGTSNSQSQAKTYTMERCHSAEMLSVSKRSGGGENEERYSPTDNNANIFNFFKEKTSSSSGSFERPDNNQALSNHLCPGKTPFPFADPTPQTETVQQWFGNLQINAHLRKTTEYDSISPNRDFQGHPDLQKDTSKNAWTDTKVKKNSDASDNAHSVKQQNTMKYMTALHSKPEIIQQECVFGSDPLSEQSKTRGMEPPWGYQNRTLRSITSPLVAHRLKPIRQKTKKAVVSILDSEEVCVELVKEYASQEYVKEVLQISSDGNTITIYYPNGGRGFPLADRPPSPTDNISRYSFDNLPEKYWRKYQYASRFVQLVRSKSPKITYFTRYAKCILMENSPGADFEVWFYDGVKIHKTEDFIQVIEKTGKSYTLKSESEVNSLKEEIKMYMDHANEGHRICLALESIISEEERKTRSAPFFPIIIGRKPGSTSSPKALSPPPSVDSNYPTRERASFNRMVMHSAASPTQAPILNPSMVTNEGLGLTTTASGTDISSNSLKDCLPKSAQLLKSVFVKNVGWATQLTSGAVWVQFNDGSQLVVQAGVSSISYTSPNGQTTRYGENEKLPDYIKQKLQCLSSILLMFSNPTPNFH
The note with it: PLK4/SAK, 10 uM; for remaining activity at 10 µM: read-out: % Enzyme Activity (relative to DMSO controls).

Test [2] concerns the target T2, 382 unique human kinases (Homo sapiens, UniProt P32298).
T2 construct: purchased Reaction Biology (HotSpot contract assay)
To be noted: kinase GRK4, compound 10 uM; for remaining activity at 10 µM: read-out: % Enzyme Activity (relative to DMSO controls).

Test [3] addresses T3, 382 unique human kinases (Homo sapiens, UniProt P49137).
T3 construct: purchased Reaction Biology (HotSpot contract assay)
To be noted: MAPKAPK2, compound at 10 uM, duplicate values; for remaining activity at 10 µM: read-out: % Enzyme Activity (relative to DMSO controls).

Test [4] deals with T4, 382 unique human kinases (Homo sapiens, UniProt P08581, T1173I).
T4 construct: purchased Reaction Biology (HotSpot contract assay)
To be noted: c-MET (T1173I), compound at 10 uM, duplicate values; for remaining activity at 10 µM: read-out: % Enzyme Activity (relative to DMSO controls).

Test [5] concerns the target T5, 382 unique human kinases (Homo sapiens, UniProt Q86SG6).
T5 construct: purchased Reaction Biology (HotSpot contract assay)
T5 sequence (Q86SG6 1-692): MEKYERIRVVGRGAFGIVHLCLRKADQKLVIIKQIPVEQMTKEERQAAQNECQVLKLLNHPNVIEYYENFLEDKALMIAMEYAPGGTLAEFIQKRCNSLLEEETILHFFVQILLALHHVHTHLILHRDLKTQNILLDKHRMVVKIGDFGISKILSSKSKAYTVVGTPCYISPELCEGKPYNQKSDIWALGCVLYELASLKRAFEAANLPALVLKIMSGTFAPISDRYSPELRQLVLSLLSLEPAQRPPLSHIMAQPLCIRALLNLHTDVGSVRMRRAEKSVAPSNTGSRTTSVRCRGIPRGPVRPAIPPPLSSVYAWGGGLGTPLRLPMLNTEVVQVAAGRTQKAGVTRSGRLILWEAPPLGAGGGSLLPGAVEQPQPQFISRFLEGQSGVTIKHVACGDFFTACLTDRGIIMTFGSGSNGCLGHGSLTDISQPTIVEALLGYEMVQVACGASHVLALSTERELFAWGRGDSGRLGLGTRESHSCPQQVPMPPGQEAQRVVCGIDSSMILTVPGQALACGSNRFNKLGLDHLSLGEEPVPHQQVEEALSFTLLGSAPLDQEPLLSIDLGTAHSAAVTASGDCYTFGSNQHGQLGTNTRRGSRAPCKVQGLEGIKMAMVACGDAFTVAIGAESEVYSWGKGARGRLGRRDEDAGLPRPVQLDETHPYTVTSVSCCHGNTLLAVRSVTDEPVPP
The note with it: NEK8, [ATP] 100 µM, compound 10 uM; for remaining activity at 10 µM: read-out: % Enzyme Activity (relative to DMSO controls).

The target in test [6] is T6, 382 unique human kinases (Homo sapiens, UniProt P54753).
T6 construct: purchased Reaction Biology (HotSpot contract assay)
T6 sequence (P54753 34-998): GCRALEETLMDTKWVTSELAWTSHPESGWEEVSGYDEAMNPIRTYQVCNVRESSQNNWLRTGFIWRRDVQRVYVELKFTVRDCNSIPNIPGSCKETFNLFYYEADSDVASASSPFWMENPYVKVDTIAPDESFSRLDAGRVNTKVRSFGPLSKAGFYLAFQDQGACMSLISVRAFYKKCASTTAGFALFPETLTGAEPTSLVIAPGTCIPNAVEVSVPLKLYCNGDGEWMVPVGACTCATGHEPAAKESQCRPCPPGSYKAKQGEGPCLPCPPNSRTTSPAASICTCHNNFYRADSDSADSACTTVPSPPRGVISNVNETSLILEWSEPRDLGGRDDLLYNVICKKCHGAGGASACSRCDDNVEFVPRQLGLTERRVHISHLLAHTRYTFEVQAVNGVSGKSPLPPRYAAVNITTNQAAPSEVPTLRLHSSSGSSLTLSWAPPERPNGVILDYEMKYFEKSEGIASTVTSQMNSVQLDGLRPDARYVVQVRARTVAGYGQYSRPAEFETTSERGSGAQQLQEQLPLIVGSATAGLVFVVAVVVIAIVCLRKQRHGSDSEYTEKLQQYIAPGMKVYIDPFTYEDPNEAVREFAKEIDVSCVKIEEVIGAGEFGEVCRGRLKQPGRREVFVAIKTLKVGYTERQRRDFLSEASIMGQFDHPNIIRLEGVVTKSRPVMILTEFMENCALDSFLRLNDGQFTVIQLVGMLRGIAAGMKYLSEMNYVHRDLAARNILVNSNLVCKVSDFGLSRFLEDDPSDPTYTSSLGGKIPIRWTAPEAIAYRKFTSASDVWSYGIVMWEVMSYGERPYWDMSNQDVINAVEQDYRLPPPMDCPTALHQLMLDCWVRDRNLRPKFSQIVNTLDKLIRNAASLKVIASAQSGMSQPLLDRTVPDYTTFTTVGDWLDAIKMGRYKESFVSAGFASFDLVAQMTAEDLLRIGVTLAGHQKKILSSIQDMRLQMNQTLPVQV
To be noted: EPHB3, 10 uM; for remaining activity at 10 µM: read-out: % Enzyme Activity (relative to DMSO controls).

T3 sequence (P49137 whole entry): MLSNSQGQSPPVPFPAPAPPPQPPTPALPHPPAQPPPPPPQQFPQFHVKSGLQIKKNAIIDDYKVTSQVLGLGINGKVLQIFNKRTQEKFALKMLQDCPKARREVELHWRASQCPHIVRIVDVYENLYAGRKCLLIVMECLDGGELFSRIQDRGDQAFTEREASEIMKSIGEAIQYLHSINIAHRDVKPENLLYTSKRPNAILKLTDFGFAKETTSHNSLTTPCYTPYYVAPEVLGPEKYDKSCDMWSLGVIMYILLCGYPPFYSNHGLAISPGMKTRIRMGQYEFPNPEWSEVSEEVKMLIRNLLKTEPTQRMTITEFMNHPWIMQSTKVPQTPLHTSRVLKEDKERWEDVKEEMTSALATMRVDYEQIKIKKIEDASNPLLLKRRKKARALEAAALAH
T2 sequence (P32298 whole entry): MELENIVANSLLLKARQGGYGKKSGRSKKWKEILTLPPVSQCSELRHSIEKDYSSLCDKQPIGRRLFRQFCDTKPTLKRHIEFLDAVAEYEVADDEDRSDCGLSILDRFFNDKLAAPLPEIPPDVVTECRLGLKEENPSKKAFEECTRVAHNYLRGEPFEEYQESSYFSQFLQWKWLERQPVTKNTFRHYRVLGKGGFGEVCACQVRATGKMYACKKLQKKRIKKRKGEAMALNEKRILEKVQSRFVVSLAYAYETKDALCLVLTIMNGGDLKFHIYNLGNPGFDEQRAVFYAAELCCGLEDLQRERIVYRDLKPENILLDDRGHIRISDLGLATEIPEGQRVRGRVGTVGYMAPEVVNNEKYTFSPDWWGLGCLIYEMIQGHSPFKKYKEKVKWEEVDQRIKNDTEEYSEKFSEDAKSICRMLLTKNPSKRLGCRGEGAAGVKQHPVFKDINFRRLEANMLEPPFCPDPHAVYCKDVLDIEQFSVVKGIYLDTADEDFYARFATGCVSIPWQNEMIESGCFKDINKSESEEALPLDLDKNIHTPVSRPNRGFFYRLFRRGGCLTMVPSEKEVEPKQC

`CC(C)c1cc(-c2n[nH]c(=O)n2-c2ccc3c(ccn3C)c2)c(O)cc1O` [Ganetespib (STA9090)]: the remaining activity at 10 µM on 382 unique human kinases [1] stood at 78.2%; on 382 unique human kinases [2], 90%; at 382 unique human kinases [3], 102%; at 382 unique human kinases [4], 102%.

Consider `CC(C)c1cc(-c2n[nH]c(=O)n2-c2ccc3c(ccn3C)c2)c(O)cc1O` [Ganetespib], for which the results for the remaining activity at 10 µM on 382 unique human kinases [5] and at 382 unique human kinases [6] were 56.7% and 94.5%, respectively.

Consider `CCNC(=O)c1noc(-c2cc(C(C)C)c(O)cc2O)c1-c1ccc(CN2CCOCC2)cc1` [Luminespib (AUY-922)], for which the “% Enzyme Activity (relative to DMSO controls)” value on 382 unique human kinases [1] worked out at 86.84%; at 382 unique human kinases [2] it was 97.37%; at 382 unique human kinases [3], 105.08%; at 382 unique human kinases [4] it was 114.35%. Also, the remaining activity at 10 µM on 382 unique human kinases [1] is 89.6%; on 382 unique human kinases [2], 97.7%; at 382 unique human kinases [3], 106%; on 382 unique human kinases [4], 118%.

Take `CCNC(=O)c1noc(-c2cc(C(C)C)c(O)cc2O)c1-c1ccc(CN2CCOCC2)cc1` [Luminespib]: on 382 unique human kinases [5], the “% Enzyme Activity (relative to DMSO controls)” value was 93.87% and the remaining activity at 10 µM came out at 94.8%. On 382 unique human kinases [6], the “% Enzyme Activity (relative to DMSO controls)” value came out at 94.58% and the remaining activity at 10 µM is 95.5%.

Values taken from publication PMC8550792, “Evolution of kinase polypharmacology across HSP90 drug discovery” (Cell Chemical Biology, 2021).
